Numbered stars: 1 amine (or outer) side, 2 acyl side, 3 side chain; on linkers, the order of the positions; unused ones are H or OH. Bridge positions count the residues as written; N and C are the ends. Ends that are not written are not given here. Peptide text beside a SMILES is read from it. BMA = bismethylene aryl moiety linked through two thioether bonds; CH2(3,3'-bipyridine-6,6')CH2 = c1cc(C[*:1])ncc1-c1ccc(C[*:2])nc1
Key:
HeLa cells [1] = test: FACS analysis of cell permeability of fluorescein-conjugated peptides; type: cell-based; details: 10 μM fluorescein-conjugated peptide, 2 h
Experimental: FACS Analysis. HeLa Cells were cultured in DMEM medium supplemented with 10% fetal bovine serum in 6-well plate in a 37° C., 5% CO2 incubator to reach confluency of around 70%. The cells were then washed twice with PBS before switching to serum-free DMEM medium. After standing in the incubator for 30 minutes, appropriate amounts of peptides (1 mM in DMSO) were added to the culture plate to obtain a final peptide concentration of 10 μM. Cells were incubated at 37° C. for additional 2 hrs. Then the medium was removed and the cells were washed with PBS (3×) followed by treatment with trypsin to detach the cells. After a brief low-speed centrifugation, the HeLa cells were collected and re-suspended in PBS for the FACS analysis.

HeLa cells [2] = test: Cell viability assay (CellTiter-Glo, ATP) and DIC imaging, cytotoxicity; type: cell-based; details: 10 μM, 2 hours; DIC channel and ATP assay
Experimental: FIG. 8. (a) Confocal images of fixed HeLa cells after treatment with 10 μM of fluorescein-conjugated peptides for 2 hours. Scale bar=50 μm. (b) Cell viability assay using the CellTiter-Glo reagent.
Cell Viability Assay. HeLa cells were seeded into an opaque 96-well plate at a density of 1×10^4 per well in 100 μL DMEM medium supplemented with 10% FBS and the cells were allowed to grow in a 37° C. 5% CO2 incubator for 48 hrs to reach confluency of around 80%. Prior to the compound treatment, the medium was replaced with serum-free medium and the cells were incubated for 30 minutes. Appropriate amounts of peptides (1 mM in DMSO) were then added to obtain a final concentration of 10 μM and the cells were incubated at 37° C. for 2 hours. Afterwards, the plate was allowed to stand at room temperature for 30 minutes before 100 μL of Cell-Titer Glow reagent (Promega) was added. The plate was incubated at room temperature for 10 minutes. The luminescence signals were recorded with an FLX 800 luminescence plate reader (BioTek). The plotted data represented the average of the readings from 4 separate wells.

[3] = Circular dichroism, percent helicity; type: physicochemical; details: compared to the linear NoxaBH3 peptide, 50 μM in 20% ACN/H2O
Experimental: FIG. 12. […] The peptides were dissolved in 20% ACN/H2O for a final concentration of 50 μM.
Circular Dichroism Study. […] The spectra were recorded in the wavelength range of 190-250 nm and averaged over 3 scans with a resolution of 0.5 nm, a bandwidth of 1.0 nm and a response time of 4 s. The sensitivity and the speed of the spectrometer were set to 100 mdeg and 50 nm/min, respectively. All peptides were dissolved in 20% acetonitrile/H2O to reach final concentration of 50 μM.

GST-Mcl-1 = GST-Mcl-1 (Homo sapiens, UniProt Q07820); test: Competitive fluorescence polarization assay; type: binding; details: for IC50: Noxa peptides, three repeats ± SD, read-out: FP, IC50
Experimental: Competitive Florescence Polarization Assay. The binding affinity of the Noxa peptides toward GST-Mcl-1 was determined in a competitive fluorescence polarization assay with the fluorescein-labeled Bak or Bim. Briefly, fluorescein-labeled Bak was incubated with GST-Mcl-1 in a binding buffer (PBS, 0.005% Tween-20, pH7.4) at room temperature in a 96-well microtiter plate. […] The reading was repeated at various time points to ensure that the competition has reached equilibrium.

Mcl-1 [4] = molecular target: Mcl-1 (Homo sapiens, UniProt Q07820); test: ELISA of cross-linked Noxa peptides; type: binding
chymotrypsin = chymotrypsin (Bos taurus, UniProt P00766); test: Chymotrypsin proteolytic stability assay; details: cattle (bovine), chymotrypsin (Type II, Sigma) in NH4HCO3 buffer, pH 8
Experimental: Proteolytic stability of the linear and stapled Noxa peptides against trypsin (Type IX-S, 13,000-20,000 unit/mg, Sigma) and chymotrypsin (Type II, 40 unit/mg, Sigma). To a solution of 400 μL of 0.25 mM peptide in NH4HCO3 buffer, pH 8.0, was added 80 μL trypsin (5 μg/mL) or chymotrypsin (25 μg/mL), and the resulting solution was incubated at 37° C. At the indicated times, 40 μL of the solution was transferred to 40 μL trifluoroacetic acid to quench the reaction. The samples were analyzed by reverse-phase HPLC using benzophenone as an injection control.

Mcl-1 [5] = molecular target: Mcl-1 (Mus musculus, UniProt P97287); details: background literature; read-out: IC50 against Mcl-1; cited from earlier work
Chain of Mcl-1 (Mus musculus, UniProt P97287) (P97287 152-308 limits assumed): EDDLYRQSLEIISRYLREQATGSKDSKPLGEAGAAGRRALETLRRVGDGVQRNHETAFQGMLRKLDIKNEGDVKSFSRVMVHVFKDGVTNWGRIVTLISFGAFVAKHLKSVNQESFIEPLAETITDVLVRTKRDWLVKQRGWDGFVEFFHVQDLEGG

Chain of GST-Mcl-1 (Q07820 whole entry): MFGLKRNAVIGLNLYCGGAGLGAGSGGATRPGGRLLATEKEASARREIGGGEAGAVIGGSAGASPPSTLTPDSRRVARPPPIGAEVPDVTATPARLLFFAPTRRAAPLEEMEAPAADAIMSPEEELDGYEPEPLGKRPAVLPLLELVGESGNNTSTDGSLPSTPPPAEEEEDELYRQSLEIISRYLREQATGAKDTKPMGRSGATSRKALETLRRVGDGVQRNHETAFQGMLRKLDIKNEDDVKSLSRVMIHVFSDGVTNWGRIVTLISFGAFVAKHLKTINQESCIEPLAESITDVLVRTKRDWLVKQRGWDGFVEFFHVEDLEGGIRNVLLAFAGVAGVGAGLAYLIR
Chain of Mcl-1 (Homo sapiens, UniProt Q07820) (Q07820 whole entry, species assumed): as the sequence (Q07820 whole entry) above

CC(=O)N[C@@H](CC(C)C)C(=O)N[C@H](C(=O)N[C@@H](Cc1ccccc1)C(=O)N[C@@H](CS)C(=O)N[C@@H](Cc1c[nH]cn1)C(=O)N[C@@H](Cc1ccc(O)cc1)C(=O)N[C@@H](Cc1c[nH]c2ccccc12)C(=O)N[C@@H](C)C(=O)N[C@@H](CCC(N)=O)C(=O)N[C@@H](CC(C)C)C(=O)N[C@@H](CS)C(=O)N[C@@H](CO)C(N)=O)[C@@H](C)O [Peptide 1] (Ac-LTFCHYWAQLCS-NH2)
cell penetration (HeLa cells [1]; relative to DMSO control): minimal cell penetration

CC(=O)N[C@@H](CC(C)C)C(=O)N[C@H](C(=O)N[C@@H](Cc1ccccc1)C(=O)N[C@H]1CSCc2ccc(cn2)-c2ccc(nc2)CSC[C@@H](C(=O)N[C@@H](CO)C(N)=O)NC(=O)[C@H](CC(C)C)NC(=O)[C@H](CCC(N)=O)NC(=O)[C@H](C)NC(=O)[C@H](Cc2c[nH]c3ccccc23)NC(=O)[C@H](Cc2ccc(O)cc2)NC(=O)[C@H](Cc2c[nH]cn2)NC1=O)[C@@H](C)O [Peptide 1b, LTFC″HYWAQLC″S] (Ac-LTFCHYWAQLCS-NH2; linker 4-11 via CH2(3,3'-bipyridine-6,6')CH2; C-terminus assumed)
increase in mean fluorescence by Bpy cross-linking (HeLa cells [1]; over linear counterpart): ~6 fold | cytotoxicity (HeLa cells [2]): did not show any cytotoxicity

CC[C@H](C)[C@@H]1NC(=O)[C@H](CCCNC(=N)N)NC(=O)[C@H](CCCNC(=N)N)NC(=O)[C@H](CC(C)C)NC(=O)[C@@H](NC(=O)[C@H](C)NC(=O)[C@H](C)NC(C)=O)CSCc2ccc(cc2)-c2ccc(cc2)CSC[C@@H](C(=O)N[C@H](C(=O)N[C@@H](CC(N)=O)C(=O)N[C@@H](CC(C)C)C(=O)N[C@@H](CCCNC(=N)N)C(=O)N[C@@H](CCC(N)=O)C(=O)N[C@@H](CCCCN)C(=O)N[C@@H](CC(C)C)C(=O)N[C@@H](CC(C)C)C(=O)N[C@@H](CC(N)=O)C(N)=O)C(C)C)NC(=O)[C@H](CC(=O)O)NC(=O)CNC1=O [Peptide 5a]
enhancement in percent helicity [3]: roughly 2 fold | IC50 (GST-Mcl-1): 18 ± 6 nM | increase in activity in FPA (GST-Mcl-1; compared to the parent linear peptide): 67 fold | IC50 (Mcl-1 [4]): 75 nM

CC[C@H](C)[C@@H]1NC(=O)[C@H](CCCNC(=N)N)NC(=O)[C@H](CCCNC(=N)N)NC(=O)[C@H](CC(C)C)NC(=O)[C@@H](NC(=O)[C@H](C)NC(=O)[C@H](C)NC(C)=O)CSCc2ccc(cn2)-c2ccc(nc2)CSC[C@@H](C(=O)N[C@H](C(=O)N[C@@H](CC(N)=O)C(=O)N[C@@H](CC(C)C)C(=O)N[C@@H](CCCNC(=N)N)C(=O)N[C@@H](CCC(N)=O)C(=O)N[C@@H](CCCCN)C(=O)N[C@@H](CC(C)C)C(=O)N[C@@H](CC(C)C)C(=O)N[C@@H](CC(N)=O)C(N)=O)C(C)C)NC(=O)[C@H](CC(=O)O)NC(=O)CNC1=O [Peptide 5b]
enhancement in percent helicity [3]: roughly 2 fold | IC50 (GST-Mcl-1): 45 ± 9 nM | IC50 (Mcl-1 [4]): 25 nM | half-life at 0.208 mM (chymotrypsin): 22 min

LTFCRYWARLCS (LTFCRYWARLCS-NH2; linker 4-11 via BMA (inferred); not fully specified) [Peptide 2, linear arginine-substituted dicysteine PDI analog]
increase in mean fluorescence / permeability by arginine substitution (HeLa cells [1]; compared to charge-neutral counterpart): 2.5 fold

NoxaA-(16-41): BH3 peptide derived from mouse Noxa (RAELPPEFAAQLRKIGDKVYCTWSAP; UniProt Q9JM54 16-41, looked up, fragment)
IC50 (Mcl-1 [5]): 87 nM

NoxaB-(68-93): BH3 peptide derived from mouse Noxa (PADLKDECAQLRRIGDKVNLRQKLLN; UniProt Q9JM54 68-93, looked up, fragment)
IC50 (Mcl-1 [5]): 109 nM
